What follows are compounds tested against human full length recombinant Mps-1 kinase (Homo sapiens (Human), UniProt P33981) (assay: Mps-1 Kinase Assay (TR-FRET)). Conditions: 10 μM ATP, 1 μM biotinylated peptide substrate, 60 min at 22° C., read-out: Mps-1 Inhibition, IC50 in M.
Assay type: biochemical
In short: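 Inhibition of Mps-1 (N-terminal GST fusion, full length) toward a biotinylated peptide is read as Eu-to-XLent TR-FRET. Enzyme level, around 1 nM final, follows lot activity.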

Chain of human full length recombinant Mps-1 kinase (P33981 whole entry): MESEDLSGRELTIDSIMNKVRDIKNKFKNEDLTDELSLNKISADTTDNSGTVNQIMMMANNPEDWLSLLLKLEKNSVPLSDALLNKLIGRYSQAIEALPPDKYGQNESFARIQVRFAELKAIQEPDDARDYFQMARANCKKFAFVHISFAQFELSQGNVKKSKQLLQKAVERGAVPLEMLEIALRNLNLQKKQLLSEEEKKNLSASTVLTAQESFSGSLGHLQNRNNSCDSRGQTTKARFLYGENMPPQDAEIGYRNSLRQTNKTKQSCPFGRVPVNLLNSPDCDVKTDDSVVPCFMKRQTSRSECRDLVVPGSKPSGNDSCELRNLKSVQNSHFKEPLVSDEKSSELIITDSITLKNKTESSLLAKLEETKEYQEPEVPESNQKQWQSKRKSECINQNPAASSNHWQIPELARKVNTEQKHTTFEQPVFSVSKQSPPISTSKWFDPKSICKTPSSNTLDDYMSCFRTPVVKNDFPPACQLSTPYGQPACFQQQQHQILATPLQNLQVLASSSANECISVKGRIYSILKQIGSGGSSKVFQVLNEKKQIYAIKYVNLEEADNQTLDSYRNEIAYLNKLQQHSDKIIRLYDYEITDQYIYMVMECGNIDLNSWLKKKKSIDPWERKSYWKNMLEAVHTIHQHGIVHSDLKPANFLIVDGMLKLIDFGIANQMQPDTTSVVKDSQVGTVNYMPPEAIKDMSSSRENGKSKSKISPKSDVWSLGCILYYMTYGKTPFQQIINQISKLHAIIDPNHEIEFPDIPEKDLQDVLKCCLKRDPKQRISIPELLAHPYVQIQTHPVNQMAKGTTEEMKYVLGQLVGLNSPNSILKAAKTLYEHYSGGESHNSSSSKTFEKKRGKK

IC50 | Compound
≤ 1 nM | O=C(NCc1ccc(F)cc1)c1ccc(-c2ccc3nc(Nc4ccc(C(=O)N5CCOCC5)cc4OCC(F)(F)F)nn3c2)cc1 [Example 04.17, N-(4-fluorobenzyl)-4-(2-{[4-(morpholin-4-ylcarbonyl)-2-(2,2,2-trifluoroethoxy)phenyl]amino}[,2]-triazolo[1,5-a]pyridin-6-yl)benzamide]
≤ 1 nM | COc1cc(N2CCN(C)CC2)ccc1Nc1nc2ccc(-c3ccc(C(=O)NCc4ccc(F)cc4)cc3)cn2n1 [Example 04.18, N-(4-fluorobenzyl)-4-(2-{[2-methoxy-4-(4-methylpiperazin-1-yl)phenyl]amino}[,2]triazolo[1,5-a]pyridin-6-yl)benzamide]
≤ 1 nM | COc1cc(N2CCN(C(C)(C)C)CC2)ccc1Nc1nc2ccc(-c3ccc(C(=O)NCc4ccc(F)cc4)cc3)cn2n1 [Example 04.19, 4-(2-{[4-(4-tert-butylpiperazin-1-yl)-2-methoxyphenyl]amino}[,2]triazolo[1,5-a]pyridin-6-yl)-N-(4-fluorobenzyl)benzamide]
≤ 1 nM | O=C(NCc1ccc(F)cc1)c1ccc(-c2ccc3nc(Nc4ccc(C(=O)N5CC6(COC6)C5)cc4F)nn3c2)cc1 [Example 04.20, N-(4-fluorobenzyl)-4-(2-{[2-fluoro-4-(2-oxa-6-azaspiro[3.3]hept-6-ylcarbonyl)phenyl]amino}[,2]triazolo[1,5-a]pyridin-6-yl)benzamide]
≤ 1 nM | O=C(NCc1ccc(F)cc1)c1ccc(-c2ccc3nc(Nc4ccc(C(=O)N5CCOCC5)cc4F)nn3c2)cc1 [Example 04.21, N-(4-fluorobenzyl)-4-(2-{[2-fluoro-4-(morpholin-4-ylcarbonyl)phenyl]amino}[,2]-triazolo[1,5-a]pyridin-6-yl)benzamide]
≤ 1 nM | O=C(NCc1ccc(F)cc1)c1ccc(-c2ccc3nc(Nc4ccc(C(=O)N5CCOCC5)cc4OCC(F)F)nn3c2)cc1 [Example 04.22, 4-(2-{[2-(2,2-difluoroethoxy)-4-(morpholin-4-ylcarbonyl)phenyl]amino}[,2]-triazolo[1,5-a]pyridin-6-yl)-N-(4-fluorobenzyl)benzamide]
≤ 1 nM | O=C(NCc1ccc(F)cc1)c1ccc(-c2ccc3nc(Nc4ccc(C(=O)N5CCOCC5)cc4C(F)(F)F)nn3c2)cc1 [Example 04.23, N-(4-fluorobenzyl)-4-(2-{[4-(morpholin-4-ylcarbonyl)-2-(trifluoromethyl)phenyl]amino}[,2]triazolo[1,5-a]pyridin-6-yl)benzamide]
≤ 1 nM | COc1cc(CN2CCN(C)CC2)ccc1Nc1nc2ccc(-c3ccc(C(=O)NCc4ccc(F)cc4)cc3)cn2n1 [Example 04.24, N-(4-fluorobenzyl)-4-[2-({2-methoxy-4-[(4-methylpiperazin-1-yl)methyl]phenyl}amino)[,2]triazolo[1,5-a]pyridin-6-yl]benzamide]
≤ 1 nM | COc1cc(CN2CCOCC2)ccc1Nc1nc2ccc(-c3ccc(C(=O)NCc4ccc(F)cc4)cc3)cn2n1 [Example 04.25, N-(4-fluorobenzyl)-4-(2-{[2-methoxy-4-(morpholin-4-ylmethyl)phenyl]amino}[,2]-triazolo[1,5-a]pyridin-6-yl)benzamide]
≤ 1 nM | COc1cc(OC2CCN(C)CC2)ccc1Nc1nc2ccc(-c3ccc(C(=O)NCc4ccc(F)cc4)cc3)cn2n1 [Example 04.26, N-(4-fluorobenzyl)-4-[2-({2-methoxy-4-[(1-methylpiperidin-4-yl)oxy]phenyl}amino)[,2]triazolo[1,5-a]pyridin-6-yl]benzamide]
≤ 1 nM | CSc1cc(OC2CCN(C)CC2)ccc1Nc1nc2ccc(-c3ccc(C(=O)NCc4ccc(F)cc4)cc3)cn2n1 [Example 04.27, N-(4-fluorobenzyl)-4-[2-({4-[(1-methylpiperidin-4-yl)oxy]-2-(methylsulfanyl)phenyl}amino)[,2]triazolo[1,5-a]pyridin-6-yl]benzamide]
≤ 1 nM | Cc1cc(C(=O)N2CC3(COC3)C2)ccc1Nc1nc2ccc(-c3ccc(C(=O)NCc4ccc(F)cc4)cc3)cn2n1 [Example 04.28, N-(4-fluorobenzyl)-4-(2-{[2-methyl-4-(2-oxa-6-azaspiro[3.3]hept-6-ylcarbonyl)phenyl]amino}[,2]triazolo[1,5-a]pyridin-6-yl)benzamide]
≤ 1 nM | Cc1cc(C(=O)N2CCOCC2)ccc1Nc1nc2ccc(-c3ccc(C(=O)NCc4ccc(F)cc4)cc3)cn2n1 [Example 04.29, N-(4-fluorobenzyl)-4-(2-{[2-methyl-4-(morpholin-4-ylcarbonyl)phenyl]amino}[,2]-triazolo[1,5-a]pyridin-6-yl)benzamide]
≤ 1 nM | O=C(NCc1ccc(F)cc1)c1ccc(-c2ccc3nc(Nc4ccc(C(=O)N5CC6(COC6)C5)cc4OC(F)(F)F)nn3c2)cc1 [Example 04.30, N-(4-fluorobenzyl)-4-(2-{[4-(2-oxa-6-azaspiro[3.3]hept-6-ylcarbonyl)-2-(trifluoromethoxy)phenyl]amino}[,2]-triazolo[1,5-a]pyridin-6-yl)benzamide]
≤ 1 nM | O=C(NCc1ccc(F)cc1)c1ccc(-c2ccc3nc(Nc4ccc(C(=O)N5CCOCC5)cc4OC(F)(F)F)nn3c2)cc1 [Example 04.31, N-(4-fluorobenzyl)-4-(2-{[4-(morpholin-4-ylcarbonyl)-2-(trifluoromethoxy)phenyl]amino}[,2]-triazolo[1,5-a]pyridin-6-yl)benzamide]
≤ 1 nM | COc1ccc(C(=O)N2CCOCC2)cc1Nc1nc2ccc(-c3ccc(C(=O)NCc4ccc(F)cc4)cc3)cn2n1 [Example 04.32, N-(4-fluorobenzyl)-4-(2-{[2-methoxy-5-(morpholin-4-ylcarbonyl)phenyl]amino}[,2]-triazolo[1,5-a]pyridin-6-yl)benzamide]
≤ 1 nM | Cc1nc(N2CCOCC2)ccc1Nc1nc2ccc(-c3ccc(C(=O)NCc4ccc(F)cc4)cc3)cn2n1 [Example 04.33, N-(4-fluorobenzyl)-4-(2-{[2-methyl-6-(morpholin-4-yl)pyridin-3-yl]amino}[,2]triazolo[1,5-a]pyridin-6-yl)benzamide]
≤ 1 nM | Cc1nc(N2CCCC2)ccc1Nc1nc2ccc(-c3ccc(C(=O)NCc4ccc(F)cc4)cc3)cn2n1 [Example 04.34, N-(4-fluorobenzyl)-4-(2-{[2-methyl-6-(pyrrolidin-1-yl)pyridin-3-yl]amino}[,2]triazolo[1,5-a]pyridin-6-yl)benzamide]
≤ 1 nM | COc1cc(C(=O)N2CC(F)C2)ccc1Nc1nc2ccc(-c3ccc(C(=O)NCc4ccc(F)cc4)cc3)cn2n1 [Example 04.35, 4-[2-({4-[(3-fluoroazetidin-1-yl)carbonyl]-2-methoxyphenyl}amino)[,2]triazolo[1,5-a]pyridin-6-yl]-N-(4-fluorobenzyl)benzamide]
≤ 1 nM | COc1cc(C(=O)N2CCOCC2)ccc1Nc1nc2ccc(-c3ccc(C(=O)NCc4ccc(Cl)cc4)cc3)cn2n1 [Example 05.01, N-(4-chlorobenzyl)-4-(2-{[2-methoxy-4-(morpholin-4-ylcarbonyl)phenyl]amino}[,2]-triazolo[1,5-a]pyridin-6-yl)benzamide]
≤ 1 nM | COc1cc(C(=O)N2CCOCC2)ccc1Nc1nc2ccc(-c3ccc(C(=O)NCc4ccc(C)cc4)cc3)cn2n1 [Example 05.02, 4-(2-{[2-methoxy-4-(morpholin-4-ylcarbonyl)phenyl]amino}[,2]-triazolo[1,5-a]pyridin-6-yl)-N-(4-methylbenzyl)benzamide]
